This note sets out measurements from patent US7067549B2, “Pyrrolidone carboxamides” (Actelion Pharmaceuticals AG, priority 2001, dated 2006).

The term IC50 denotes the midpoint of a concentration-inhibition curve.

The test addresses T1, mouse NPY-Y5 receptors (mNPY-Y5) (Mus musculus, UniProt O70342).
T1 construct: The full-length cDNA which contains the mouse NPY-Y5 (mNPY-Y5) receptor coding was amplified from mouse brain cDNA; expressed in transfected cells
T1 sequence (O70342 1-466): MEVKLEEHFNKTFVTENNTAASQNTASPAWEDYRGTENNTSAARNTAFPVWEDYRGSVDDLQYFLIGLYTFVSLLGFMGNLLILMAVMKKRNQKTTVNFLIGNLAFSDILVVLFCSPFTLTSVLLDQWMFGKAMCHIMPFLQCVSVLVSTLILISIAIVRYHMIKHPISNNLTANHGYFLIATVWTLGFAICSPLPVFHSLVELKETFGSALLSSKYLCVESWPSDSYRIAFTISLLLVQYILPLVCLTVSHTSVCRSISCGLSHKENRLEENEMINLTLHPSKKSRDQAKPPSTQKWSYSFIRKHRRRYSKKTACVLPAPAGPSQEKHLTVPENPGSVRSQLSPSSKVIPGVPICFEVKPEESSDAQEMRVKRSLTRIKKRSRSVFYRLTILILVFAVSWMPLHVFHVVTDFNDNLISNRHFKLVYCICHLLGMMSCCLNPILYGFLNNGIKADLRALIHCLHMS
Put plainly: Radioligand competition binding (125I-PYY) on membranes of HEK293 cells expressing recombinant mouse NPY-Y5 receptor. The note with it: displacement of 100 pM 125I-labeled PYY, 1 h at 22° C., read-out: NPY5 IC50. An excerpt: The full-length cDNA which contains the mouse NPY-Y5 (mNPY-Y5) receptor coding was amplified from mouse brain cDNA using specific primers, which were custom-made on the basis of published sequences, and employing Pfu DNA polymerase (Stratagene). The amplification product was subcloned into a mammalian expression vector pcDNA3 using EcoRI and XhoI restriction sites. Positive clones were sequenced; one clone, which contained the published sequence, was selected for preparing stable cell clones.
Human embryonic kidney 293 (HEK293) cells were transfected with 10 μg of mNPY5 DNA using Lipofectamine reagent (Gibco BRL) in accordance with the manufacturer's instructions. Two days after the transfection, the geneticin selection (1 mg/ml) was initiated and several stable clones were isolated. One of the clones was used for further pharmacological characterization.
Human embryonic kidney cells (HEK293) which express recombinant mouse NPY-Y5 receptors (mNPY-Y5) were disrupted by being frozen/thawed three times in hypotonic Tris buffer (5 mM, pH 7.4, 1 mM MgCl2), after which they were homogenized and centrifuged at 72 000 G for 15 minutes. The precipitate was washed twice with Tris buffer (pH 7.4) containing 25 mM MgCl2, 250 mM sucrose, 0.1 mM phenylmethylsulfonyl fluoride and 0.1 mM 1,10-phenanthroline, then resuspended in the same buffer and stored in aliquots at −80° C. The protein was determined by the Lowry method using bovine serum albumin (BSA) as the standard.
The competition binding analysis was carried out in 250 μl of 25 mM Hepes buffer (pH 7.4, 2.5 mM CaCl2, 1 mM MgCl2, 1% bovine serum albumin and 0.01% sodium azide) which 5 μg of protein, 100 pM ^125I-labeled peptide YY (PYY) and 10 μl of a DMSO solution containing increasing quantities of DMSO solution containing unlabeled test compound. After a one-hour incubation at 22° C., the bound ligand was separated from the unbound ligand by means of filtration through a glass fiber filter. Nonspecific binding was determined in the presence of 1 μM unlabeled PYY. Specific binding is defined as the difference between total binding and nonspecific binding. An IC50 value is defined as the concentration of the antagonist which displaces 50% of the ^125I-labeled […]. This concentration is determined by linear regression analysis following logit/log transformation of the binding values.
In general terms: Loss of bound radioactivity is the signal in a displacement assay; it reports binding, not function.
In the case of `CCN(c1ccccc1)c1ccc(NC(=O)C2CC(=O)N(c3cc(OC)ccc3C)C2)cc1` (racemic) [rac. N-[4-(Ethylphenylamino)phenyl]-1-(5-methoxy-2-methylphenyl)-5-oxopyrrolidine-3-carboxamide], the IC50 was 0.03 µM. As to `CCN(CC)c1ccc(NC(=O)C2CC(=O)N(c3cc(C)ccc3C)C2)cc1` (racemic) [rac. N-(4-Diethylaminophenyl)-1-(2,5-dimethylphenyl)-5-oxopyrrolidine-3-carboxamide], the IC50 is 0.009 µM. To `CCn1c2ccccc2c2cc(NC(=O)C3CC(=O)N(c4cccc(OC)c4)C3)ccc21` (racemic) [rac. N-(9-Ethyl-9H-carbazol-3-yl)-1-(3-methoxyphenyl)-5-oxopyrrolidine-3-carboxamide] belongs 0.02 µM. Regarding `CCN(c1ccccc1)c1ccc(NC(=O)C2CC(=O)N(c3ccccc3C(C)C)C2)cc1` (racemic) [rac. N-[4-(Ethylphenylamino)phenyl]-1-(2-isopropylphenyl)-5-oxopyrrolidine-3-carboxamide], the IC50 is 0.023 µM. For `CCN(c1ccc(NC(=O)C2CC(=O)N(c3ccccc3C(C)C)C2)cc1)c1nc(C)cc(C)n1` (racemic) [rac. N-{4-[(4,6-Dimethylpyrimidin-2-yl)ethylamino]phenyl}-1-(2-isopropylphenyl)-5-oxopyrrolidine-3-carboxamide], the IC50 was 0.046 µM. In the case of `Cc1ccc(C)c(N2CC(C(=O)Nc3ccc(N(CC4CC4)c4ccccc4)cc3)CC2=O)c1` (racemic) [rac. N-[4-(Cyclopropylmethylphenylamino)phenyl]-1-(2,5-dimethylphenyl)-5-oxopyrrolidine-3-carboxamide] it was 0.045 µM. On to `CCN(c1ccccc1)c1ccc(NC(=O)C2CC(=O)N(c3cc(C)ccc3C)C2)cc1` (racemic) [rac. N-[4-(Ethylphenylamino)phenyl]-1-(2,5-dimethylphenyl)-5-oxopyrrolidine-3-carboxamide], for which the IC50 is 0.017 µM. To `CCn1c2ccccc2c2cc(NC(=O)C3CC(=O)N(CCc4cccs4)C3)ccc21` (racemic) [rac. N-(9-Ethyl-9H-carbazol-3-yl)-5-oxo-1-(2-thiophen-2-ylethyl)pyrrolidine-3-carboxamide] belongs 0.01 µM; to `CCn1c2ccccc2c2cc(NC(=O)C3CC(=O)N(c4ccc(C)cc4)C3)ccc21` (racemic) [rac. N-(9-Ethyl-9H-carbazol-3-yl)-5-oxo-1-p-tolylpyrrolidine-3-carboxamide], 0.03 µM. To `CCn1c2ccccc2c2cc(NC(=O)C3CC(=O)N(Cc4ccc(OC)cc4OC)C3)ccc21` (racemic) [rac. N-(9-Ethyl-9H-carbazol-3-yl)-1-(2,4-dimethoxybenzyl)-5-oxopyrrolidine-3-carboxamide] belongs 0.02 µM. In the case of `CCN(c1ccc(NC(=O)C2CC(=O)N(CC(O)c3ccccc3)C2)cc1)c1nc(C)cc(C)n1` (racemic) [rac. N-{4-[(4,6-Dimethylpyrimidin-2-yl)ethylamino]phenyl}-1-(2-hydroxy-2-phenylethyl)-5-oxo-pyrrolidine-3-carboxamide] it was 0.033 µM. `CCn1c2ccccc2c2cc(NC(=O)C3CC(=O)N(CC(O)c4ccccc4)C3)ccc21` (racemic) [rac. N-(9-Ethyl-9H-carbazol-3-yl)-1-(2-hydroxy-2-phenylethyl)-5-oxopyrrolidine-3-carboxamide]: the IC50 amounted to 0.008 µM. In the case of `Cc1ccc(C)c(N2CC(C(=O)Nc3ccc(Nc4nc(C)cc(C)n4)cc3)CC2=O)c1` (racemic) [rac. N-[4-(4,6-Dimethylpyrimidin-2-ylamino)phenyl]-1-(2,5-dimethylphenyl)-5-oxopyrrolidine-3-carboxamide] it was 0.02 µM. To `CCn1c2ccccc2c2cc(NC(=O)C3CC(=O)N(c4ccccc4C(C)C)C3)ccc21` (racemic) [rac. N-(9-Ethyl-9H-carbazol-3-yl)-1-(2-isopropylphenyl)-5-oxopyrrolidine-3-carboxamide] belongs 0.01 µM; to `CC(C)c1ccccc1N1CC(C(=O)Nc2ccc(N(CC3CC3)c3ccccc3)cc2)CC1=O` (racemic) [rac. N-[4-(Cyclopropylmethylphenylamino)phenyl]-1-(2-isopropylphenyl)-5-oxopyrrolidine-3-carboxamide], 0.047 µM. To `COc1ccc(C)c(N2CC(C(=O)Nc3ccc(N(CC4CC4)c4ccccc4)cc3)CC2=O)c1` (racemic) [rac. N-[4-(Cyclopropylmethylphenylamino)phenyl]-1-(5-methoxy-2-methylphenyl)-5-oxopyrrolidine-3-carboxamide] belongs 0.034 µM. Regarding `Cc1cc(C)nc(Nc2ccc(NC(=O)C3CC(=O)N(C4Cc5ccccc5C4)C3)cc2)n1` (racemic) [rac. N-[4-(4,6-Dimethylpyrimidin-2-ylamino)phenyl]-1-indan-2-yl-5-oxopyrrolidine-3-carboxamide], the IC50 worked out at 0.03 µM. To `CCN(CCO)c1ccc(NC(=O)C2CC(=O)N(c3cc(C)ccc3C)C2)cc1` (racemic) [rac. N-{4-[Ethyl-(2-hydroxyethyl)amino]phenyl}-1-(2,5-dimethylphenyl)-5-oxopyrrolidine-3-carboxamide] belongs 0.016 µM; to `CCn1c2ccccc2c2cc(NC(=O)C3CC(=O)N(Cc4cccs4)C3)ccc21` (racemic) [rac. N-(9-Ethyl-9H-carbazol-3-yl)-5-oxo-1-thiophen-2-ylmethylpyrrolidine-3-carboxamide], 0.01 µM. To `CCn1c2ccccc2c2cc(NC(=O)C3CC(=O)N(c4cc(OC)ccc4C)C3)ccc21` (racemic) [rac. N-(9-Ethyl-9H-carbazol-3-yl)-1-(5-methoxy-2-methylphenyl)-5-oxopyrrolidine-3-carboxamide] belongs 0.01 µM; to `Cc1ccc(N2CC(C(=O)Nc3ccc(N(C)c4nc(C)cc(C)n4)cc3)CC2=O)cc1` (racemic) [rac. N-{4-[(4,6-Dimethylpyrimidin-2-yl)methylamino]phenyl}-5-oxo-1-p-tolylpyrrolidine-3-carboxamide], 0.022 µM; to `CCn1c2ccccc2c2cc(NC(=O)C3CC(=O)N(CCc4ccccn4)C3)ccc21` (racemic) [rac. N-(9-Ethyl-9H-carbazol-3-yl)-5-oxo-1-(2-pyridin-2-ylethyl)pyrrolidine-3-carboxamide], 0.003 µM. In the case of `Cc1ccc(N2CC(C(=O)Nc3ccc(Nc4nc(C)cc(C)n4)cc3)CC2=O)cc1` (racemic) [rac. N-[4-(4,6-Dimethylpyrimidin-2-ylamino)phenyl]-5-oxo-1-p-tolylpyrrolidine-3-carboxamide] it was 0.032 µM; in that of `CCN(c1ccc(NC(=O)C2CC(=O)N(c3cccc(OC)c3)C2)cc1)c1nc(C)cc(C)n1` (racemic) [rac. N-{4-[(4,6-Dimethylpyrimidin-2-yl)ethylamino]phenyl}-1-(3-methoxyphenyl)-5-oxopyrrolidine-3-carboxamide], 0.044 µM; in that of `CCN(c1ccccc1)c1ccc(NC(=O)C2CC(=O)N(C3Cc4ccccc4C3)C2)cc1` (racemic) [rac. N-[4-(Ethylphenylamino)phenyl]-1-indan-2-yl-5-oxopyrrolidine-3-carboxamide], 0.049 µM. Turning to `CCn1c2ccccc2c2cc(NC(=O)C3CC(=O)N(Cc4ccccc4Cl)C3)ccc21` (racemic) [rac. N-(9-Ethyl-9H-carbazol-3-yl)-1-(2-chlorobenzyl)-5-oxopyrrolidine-3-carboxamide], the IC50 amounted to 0.02 µM. In the case of `CC(C)c1ccccc1N1CC(C(=O)Nc2ccc(Nc3ccccc3)cc2)CC1=O` (racemic) [rac. N-(4-Phenylaminophenyl)-1-(2-isopropylphenyl)-5-oxopyrrolidine-3-carboxamide] it was 0.041 µM; in that of `CCn1c2ccccc2c2cc(NC(=O)C3CC(=O)N(Cc4ccccc4)C3)ccc21` (racemic) [rac. N-(9-Ethyl-9H-carbazol-3-yl)-1-benzyl-5-oxopyrrolidine-3-carboxamide], 0.032 µM.
